Laboratory results: patent US20240287005A1, “ISOXAZOLINE PESTICIDES” (Elanco Tiergesundheit AG, priority 2021, published 2024)

Tested on: Ctenocephalides felis
Assay: In vitro evaluation of contact activity against adult cat fleas
Settings: adult fleas in coated glass vial, after 48 h
Method: In vitro contact tests with […] are conducted with adult males and females of Ctenocephalides felis. For the coating of the test vials, the test substance is dissolved and diluted in acetone p.a. to the desired concentration. The solution is then homogeneously applied to the inner walls and base of a glass vial by turning and rocking on an orbital shaker until complete evaporation of the solvent. For example, with 900 ppm solution of test substance an area-based dose of 5 μg/cm^2 is achieved.
After the solvent is completely evaporated, approximately 10 adult fleas are applied to each coated test vial, which is then sealed with a perforated plastic lid and incubated in a horizontal position in the dark at room temperature and ambient humidity. Insecticidal activity is determined after 48 h. Fleas which remain motionless on the base of the test vial or move uncoordinated without occasionally jumping or walking straight are considered dead or moribund, respectively. An insecticidal activity of 100% means all fleas were dead or moribund. An insecticidal activity of 0% means none of the fleas was affected. From a dose response curve the respective EC50 was calculated (4-parameter logistic curve fitting).

## Cc1cc(C2=NOC(c3cc(C(F)(F)F)cc(C(F)(F)F)c3F)(C(F)(F)F)C2)ccc1C(=O)NCC(=O)NCC(F)(F)F (single isomer, unassigned) [Example 3.1]
  EC50 insecticidal activity (fleas dead or moribund): < 0.05 μg/cm^2
